Experimental data reported in publication PMC9989278, “Characterization of substrates and inhibitors of the human heterodimeric transporter 4F2hc-LAT1 using purified protein and the scintillation proximity radioligand binding assay” (Frontiers in Physiology, 2023).

Experiments:
[1] = molecular target: T1, human 4F2hc-LAT1 (Homo sapiens, UniProt Q01650); assay: Scintillation proximity radioligand binding assay (SPA), [3H]L-leucine competition on purified protein; details: for Binding of [3H]L-Leucine (%), residual radioligand binding: Figure 1, mean of three experiments; for Binding of [3H]L-Leucine (%), residual radioligand binding / Binding of [3H]L-Leucine (%), residual radioligand binding (RRB) / binding / inhibition of [3H]L-leucine binding to 4F2hc-LAT1, in words: competitor 250 µM; for Binding of [3H]L-Leucine (%), residual radioligand binding / Binding of [3H]L-Leucine (%), residual radioligand binding (RRB): normalized to control without competitor
T1 construct: Strep-tag (N); made in house; host or cells: Pichia pastoris strain KM71H
T1 sequence (Q01650 whole entry): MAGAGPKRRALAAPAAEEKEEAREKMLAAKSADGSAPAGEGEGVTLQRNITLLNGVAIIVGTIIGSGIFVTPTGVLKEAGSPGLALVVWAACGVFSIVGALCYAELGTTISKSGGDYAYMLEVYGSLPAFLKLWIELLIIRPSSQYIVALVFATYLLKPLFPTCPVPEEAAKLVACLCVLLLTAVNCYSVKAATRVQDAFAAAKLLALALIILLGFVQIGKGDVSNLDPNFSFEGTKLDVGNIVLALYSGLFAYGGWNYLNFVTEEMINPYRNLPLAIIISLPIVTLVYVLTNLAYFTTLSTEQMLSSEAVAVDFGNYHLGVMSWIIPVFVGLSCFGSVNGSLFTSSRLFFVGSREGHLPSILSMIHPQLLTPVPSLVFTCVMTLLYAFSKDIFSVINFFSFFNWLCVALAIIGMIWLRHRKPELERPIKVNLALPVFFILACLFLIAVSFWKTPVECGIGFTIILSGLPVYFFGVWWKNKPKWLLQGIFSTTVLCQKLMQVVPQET
T1 sequence (P08195 102-630 partner): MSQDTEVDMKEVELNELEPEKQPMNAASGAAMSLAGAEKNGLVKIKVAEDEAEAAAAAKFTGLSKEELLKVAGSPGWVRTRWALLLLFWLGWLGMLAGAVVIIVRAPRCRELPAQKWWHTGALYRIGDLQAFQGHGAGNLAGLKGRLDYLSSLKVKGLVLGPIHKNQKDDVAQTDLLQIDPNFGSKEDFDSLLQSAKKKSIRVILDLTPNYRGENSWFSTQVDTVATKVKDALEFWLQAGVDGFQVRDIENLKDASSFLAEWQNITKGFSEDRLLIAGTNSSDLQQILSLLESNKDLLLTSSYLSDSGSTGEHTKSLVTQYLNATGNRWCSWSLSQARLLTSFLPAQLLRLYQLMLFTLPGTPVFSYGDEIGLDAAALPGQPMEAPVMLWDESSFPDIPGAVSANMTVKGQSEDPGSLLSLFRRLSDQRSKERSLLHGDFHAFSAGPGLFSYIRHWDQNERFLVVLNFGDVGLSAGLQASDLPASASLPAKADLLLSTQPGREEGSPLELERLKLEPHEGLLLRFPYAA
Method: Purified, GDN-solubilized human 4F2hc-LAT1 was attached via the His-tag to polyvinyltolune (PVT) copper His-tag SPA beads (Perkin Elmer) and the protein-bound [^3H]L-leucine quantified using a scintillation counter (a detailed description of SPA with 4F2hc-LAT1 is given in the methodological publication by ([Kantipudi et al., 2021])). Briefly, experiments were conducted in 96-well plates and per well a reaction volume of 50 µL containing 250 µg PVT-SPA-beads, 1.75 µg 4F2hc-LAT1 protein, 2.5 μM L-leucine spiked with 0.5 µCi [^3H]L-leucine (ARC/Anawa, 100 Ci/mmol, 1 mCi/ml) plus a condition-specific substance. All components were dissolved in SPA-Buffer (100 mM BTP pH 8, 150 mM NaCl, 10% (v/v) glycerol, 0.5% (w/v) GDN). For some condition-specific substances (i.e., the thyroid hormones), 20 min sonication in a water bath at 4°C was necessary to dissolve them at 10× concentration in SPA-Buffer. Per reaction, 5 µL of a 10× stock solution of the condition-specific substance was placed in a well and diluted with 45 µL of a master mix containing the remaining components. For determining the substrate specificities (Figure 1), the twenty proteogenic L-amino acids and D-leucine were used as competitors at a final concentration of 250 µM. For determining the K D of L-leucine (Figure 2A) and K i of L-histidine (Figure 2B), homologous (L-leucine) and heterologous (L-histidine) substrate competition was applied at concentrations ranging from 0.01 to 1600 µM. […] The binding specificities of structural analogues of L-leucine (Figure 3) and L-histidine (Figure 4) were tested at a final competitor concentration of 250 µM. […] To avoid minor unspecific binding of radioactive L-leucine to the beads, the master mix was created in a specific procedure: SPA-beads were first mixed with the unlabeled L-leucine and shaken for 2 h at 4°C before adding the remaining components (protein last). For background subtraction in the bar graph experiments, a no-protein control was included using protein-free master mix (i.e., containing buffer instead of protein solution). The plate was shortly mixed by shaking and incubated at 4°C for ∼18 h before the signals were counted using a microplate scintillation counter (Trilux Microbeta, Perkin Elmer). […] Three experiments with protein from at least two different purifications were performed, each at least in triplicates.
Data were analyzed with Prism 6 (GraphPad Software). […] Each experiment was done with sample number of at least three (triplicate). Data of three independent experiments were merged by adding the normalized data to a common data set, which was used for curve fitting. For data analysis of the bar graphs, the signal of the no-protein control was subtracted from the transporter signal to obtain the net binding signal.

[2] = molecular target: T1, human 4F2hc-LAT1; details: P. pastoris cell uptake assay; ref Kantipudi et al., 2020; cited from earlier work

Structure (SMILES) | Binding of [3H]L-Leucine (%), residual radioligand binding [1] | Binding of [3H]L-Leucine (%), residual radioligand binding (RRB) ([1]; Figure 3, L-leucine analogues) [%] | further results
CC(C)C[C@H](N)C(=O)O [L-Leucine, L-leucine] | 1% | 1 | binding / inhibition of [3H]L-leucine binding to 4F2hc-LAT1, in words [1]: inhibited strongly; Kd ([1]; homologous competition with [3H]L-leucine, Figure 2A): 26 µM; Km [2]: 25 µM
COC(=O)[C@@H](N)CC(C)C [L-Leucine-Methyl Ester, L-leucine-methyl ester] | – | 106 | binding / inhibition of [3H]L-leucine binding to 4F2hc-LAT1, in words [1]: no significant binding
CC(C)(C)C[C@H](N)C(=O)O [L-Neopentylglycine, L-neopentyl glycine] | – | 43 | Binding of [3H]L-Leucine (%), residual radioligand binding (RRB) ([1]; Figure 3, L-leucine analogues, listed as L-neopentyl glycine): 32–43%
CCCC[C@H](N)C(=O)O [L-Norleucine, L-norleucine] | – | 62 | –
CCC[C@H](N)C(=O)O [L-Norvaline, L-norvaline] | – | 32 | Binding of [3H]L-Leucine (%), residual radioligand binding (RRB) ([1]; Figure 3, L-leucine analogues, listed as L-norvaline): 32–43%
CC(C)[C@H](N)C(=O)O [L-Valine, L-valine] | 19-29% | 27 | Binding of [3H]L-Leucine (%), residual radioligand binding ([1]; listed as Val): 19%
CC(C)(C)[C@H](N)C(=O)O [L-tert-Leucine, L-tert-leucine] | – | 37 | Binding of [3H]L-Leucine (%), residual radioligand binding (RRB) ([1]; Figure 3, L-leucine analogues, listed as L-tert-leucine): 37–45%
NCCCC[C@H](N)C(=O)O [Lys] | 45% | – | –
CSCC[C@H](N)C(=O)O [Met] | 36% | – | –
CN[C@@H](Cc1c[nH]cn1)C(=O)O [N-Methyl L-Histidine, N-methyl-L-histidine] | – | – | Binding of [3H]L-Leucine (%), residual radioligand binding (RRB) ([1]; Figure 4, L-histidine analogues): 103%; binding / inhibition of [3H]L-leucine binding to 4F2hc-LAT1, in words [1]: no significant binding
CN[C@@H](CC(C)C)C(=O)O [N-Methyl-L-Leucine, N-methyl-L-leucine] | – | 103 | binding / inhibition of [3H]L-leucine binding to 4F2hc-LAT1, in words [1]: no significant binding
N[C@@H](Cc1ccccc1)C(=O)O [Phe, L-phenylalanine] | 29% | – | Binding of [3H]L-Leucine (%), residual radioligand binding ([1]; listed as L-phenylalanine): 19-29%
N[C@@H](CO)C(=O)O [Ser] | 46% | – | –
NC(Cc1cc(I)c(Oc2cc(I)c(O)c(I)c2)c(I)c1)C(=O)O (centres unmarked) [T4, thyroxine] | – | – | Ki [1]: 10 µM
C[C@@H](O)[C@H](N)C(=O)O [Thr] | 34% | – | –
N[C@@H](Cc1c[nH]c2ccccc12)C(=O)O [Trp, L-tryptophan] | 21% | – | Binding of [3H]L-Leucine (%), residual radioligand binding ([1]; listed as L-tryptophan): 19-29%
N[C@@H](Cc1ccc(O)cc1)C(=O)O [Tyr, L-tyrosine] | 26% | – | Binding of [3H]L-Leucine (%), residual radioligand binding ([1]; listed as L-tyrosine): 19-29%
